Assay results reported in US20180213779A1, “PESTICIDALLY ACTIVE HETEROCYCLIC DERIVATIVES WITH SULPHUR CONTAINING SUBSTITUENTS” (SYNGENTA PARTICIPATIONS AG, priority 2015, published 2018).

Key:
Format in all cases: in vivo
[1] = tested on: Myzus persicae (Green Peach Aphid); assay: Example B8: Activity against Myzus persicae (sprayed sunflower leaf discs); settings: foliar, 144 h, application rate of 200 ppm, mixed ages, 6 days after infestation
Description: Example B8: Activity Against Myzus persicae (Green Peach Aphid)
Sunflower leaf discs were placed onto agar in a 24-well microtiter plate and sprayed with aqueous test solutions prepared from 10′000 ppm DMSO stock solutions. After drying, the leaf discs were infested with an aphid population of mixed ages. The samples were assessed for mortality 6 days after infestation.

[2] = tested on: Plutella xylostella (Diamond-Back Moth); assay: Example B3: Plutella xylostella larvicide, feeding/contact activity, preventative (artificial diet, 96-well); settings: 216 h, application rate of 500 ppm, mortality assessed 9 days after treatment
Description: Example B3: Plutella xylostella (Diamond-Back Moth) larvicide, feeding/contact activity, preventative Artificial diet was dispensed into a 96-well microtiter plate and treated with aqueous test solutions prepared from 10′000 ppm DMSO stock solutions. Eggs were suspended above the treated diet and first instar larvae hatched onto the diet. Mortality was assessed 9 days after treatment.

[3] = tested on: Diabrotica balteata (Corn Root Worm); assay: Example B6: Activity against Diabrotica balteata (sprayed maize sprouts); settings: 96 h, application rate of 200 ppm, L2 larvae, 4 days after infestation, read-out: effect in at least one of the two categories (mortality or growth inhibition)
Description: Example B6: Activity Against Diabrotica Balteata (Corn Root Worm)
Maize sprouts placed onto an agar layer in 24-well microtiter plates were treated with aqueous test solutions prepared from 10′000 ppm DMSO stock solutions by spraying. After drying, the plates were infested with L2 larvae (6 to 10 per well). The samples were assessed for mortality and growth inhibition in comparison to untreated samples 4 days after infestation.

[4] = tested on: Myzus persicae (Green Peach Aphid); assay: Example B10: Activity against Myzus persicae (sucrose solution, Parafilm feeding); settings: 120 h, test rate of 12 ppm, 5 days after infestation
Description: Example B10: Activity Against Myzus persicae (Green Peach Aphid)
Test compounds prepared from 10′000 ppm DMSO stock solutions were applied by pipette into 24-well microtiter plates and mixed with sucrose solution. The plates were closed with a stretched Parafilm. A plastic stencil with 24 holes was placed onto the plate and infested pea seedlings were placed directly on the Parafilm. The infested plate was closed with a gel blotting paper and another plastic stencil and then turned upside down. The samples were assessed for mortality 5 days after infestation.

[5] = tested on: Plutella xylostella (Diamond Back Moth); assay: Example B11: Activity against Plutella xylostella (artificial diet, 24-well, L2 larvae); settings: 120 h, application rate of 200 ppm, 5 days after infestation, read-out: effect in at least one of the two categories (mortality or growth inhibition)
Description: Example B11: Activity Against Plutella xylostella (Diamond Back Moth)
24-well microtiter plates with artificial diet were treated with aqueous test solutions prepared from 10′000 ppm DMSO stock solutions by pipetting. After drying, the plates were infested with L2 larvae (10 to 15 per well). The samples were assessed for mortality and growth inhibition in comparison to untreated samples 5 days after infestation.

[6] = tested on: Tetranychus urticae (Two-Spotted Spider Mite); assay: Example B12: Activity against Tetranychus urticae (sprayed bean leaf discs); settings: foliar, 192 h, application rate of 200 ppm, mixed population (mobile stages), 8 days after infestation
Description: Example B12: Activity Against Tetranychus urticae (Two-Spotted Spider Mite)
Bean leaf discs on agar in 24-well microtiter plates were sprayed with aqueous test solutions prepared from 10′000 ppm DMSO stock solutions. After drying the leaf discs were infested with a mite population of mixed ages. The samples were assessed for mortality on mixed population (mobile stages) 8 days after infestation.

[7] = tested on: Spodoptera littoralis (Egyptian Cotton Leaf Worm); assay: Example B4: Activity against Spodoptera littoralis (sprayed cotton leaf discs); settings: foliar, 72 h, application rate of 200 ppm, L1 larvae, 3 days after infestation
Description: Example B4: Activity Against Spodoptera littoralis (Egyptian Cotton Leaf Worm)
Cotton leaf discs were placed on agar in 24-well microtiter plates and sprayed with aqueous test solutions prepared from 10′000 ppm DMSO stock solutions. After drying the leaf discs were infested with five L1 larvae. The samples were assessed for mortality, anti-feedant effect, and growth inhibition in comparison to untreated samples 3 days after infestation. Control of Spodoptera littoralis by a test sample is given when at least one of the categories mortality, anti-feedant effect, and growth inhibition is higher than the untreated sample.

Row | Structure (SMILES) | mortality at 200 ppm [1] [%] | pest or weed control at 500 ppm [2] [%] | effect (mortality or growth inhibition) at 200 ppm [3] [%] | mortality at 12 ppm [4] [%] | percent effect (mortality or growth inhibition) at 200 ppm [5] [%] | mortality at 200 ppm [6] [%] | percent control (mortality, anti-feedant effect or growth inhibition) at 200 ppm [7] [%]
1 | CCSc1cccnc1-c1cn(-c2cncc(C(F)(F)F)c2)nn1 [Compound P19] | ≥ 80 | ≥ 70 | ≥ 80 | ≥ 80 |  |  | 
2 | CCS(=O)(=O)c1cc(Br)cnc1-c1cn(-c2cccc(C(F)(F)F)c2)nn1 [Compound P12, 5-bromo-3-ethylsulfonyl-2-[1-[3-(trifluoromethyl)phenyl]triazol-4-yl]pyridine] |  | ≥ 70 | ≥ 80 |  | ≥ 80 | ≥ 80 | ≥ 80
